# Data from PubChem BioAssay AID1963833 (Molecular Pharmacology Branch, DTP, NCI, 2024).
# System: 883617-216-R-J1-PDC complex spheroid viability
# Experiment: Anticancer human tumor 883617-216-R-J1-PDC patient-derived bladder carcinoma cell line growth inhibition [POLQ]
# Details: for IC50: curve of first compound; for viability, T/C: stronger effect = lower value
# How it was run: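 PDC + HUVEC + MSC complex spheroids; POLQ inhibitors ± partner drugs; top conc. at/near clinical Cmax, else 10 microM (SN-38 1 microM), half-log dilutions; 37 degrees C, 5% CO2.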
# [1] = second compound 0.0316 µM, first compound 0.0316 µM
# [2] = second compound 0.0316 µM, first compound 0.1 µM
# [3] = second compound 0.0316 µM, first compound 0.316 µM
# [4] = second compound 0.0316 µM, first compound 1 µM
# [5] = second compound 0.1 µM, first compound 0.0316 µM
# [6] = second compound 0.1 µM, first compound 0.1 µM
# [7] = second compound 0.1 µM, first compound 0.316 µM
# [8] = second compound 0.1 µM, first compound 1 µM
# [9] = second compound 0.316 µM, first compound 0.0316 µM
# [10] = second compound 0.316 µM, first compound 0.1 µM
# [11] = second compound 0.316 µM, first compound 0.316 µM
# [12] = second compound 0.316 µM, first compound 1 µM
# [13] = second compound 1 µM, first compound 0.0316 µM
# [14] = second compound 1 µM, first compound 0.1 µM
# [15] = second compound 1 µM, first compound 0.316 µM
# [16] = second compound 1 µM, first compound 1 µM
# [17] = second compound 3.16 µM, first compound 0.0316 µM
# [18] = second compound 3.16 µM, first compound 0.1 µM
# [19] = second compound 3.16 µM, first compound 0.316 µM
# [20] = second compound 3.16 µM, first compound 1 µM
# [21] = second compound 10 µM, first compound 0.0316 µM
# [22] = second compound 10 µM, first compound 0.1 µM
# [23] = second compound 10 µM, first compound 0.316 µM
# [24] = second compound 10 µM, first compound 1 µM
# [25] = second compound 0.0316 µM, first compound 3.16 µM
# [26] = second compound 0.0316 µM, first compound 10 µM
# [27] = second compound 0.1 µM, first compound 3.16 µM
# [28] = second compound 0.1 µM, first compound 10 µM
# [29] = second compound 0.316 µM, first compound 3.16 µM
# [30] = second compound 0.316 µM, first compound 10 µM
# [31] = second compound 1 µM, first compound 3.16 µM
# [32] = second compound 1 µM, first compound 10 µM
# [33] = second compound 3.16 µM, first compound 3.16 µM
# [34] = second compound 3.16 µM, first compound 10 µM
# [35] = second compound 10 µM, first compound 3.16 µM
# [36] = second compound 10 µM, first compound 10 µM
# 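Also: spheroids exposed to compounds for seven days before readout.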
# 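For viability, T/C in this document: 100% = DMSO vehicle control viability.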
smiles,measurement,setting,value
C=CCn1c(=O)c2cnc(Nc3ccc(N4CCN(C)CC4)cc3)nc2n1-c1cccc(C(C)(C)O)n1 + Cc1cccc(N(C)C(=O)C2C(O)CCN2c2nc(C)cc(C(F)(F)F)c2C#N)c1,IC50,second compound 0.0316 µM,0.938 µM
same,IC50,second compound 0.1 µM,> 1 µM
same,IC50,second compound 0.316 µM,0.896 µM
same,IC50,second compound 1 µM,> 1 µM
same,IC50,second compound 3.16 µM,> 1 µM
same,IC50,second compound 10 µM,> 1 µM
same,"viability, T/C","second compound 0.0316 µM, first compound 0.00316 µM",106%
same,"viability, T/C","second compound 0.0316 µM, first compound 0.01 µM",101%
same,"viability, T/C",[1],96.7%
same,"viability, T/C",[2],86.6%
same,"viability, T/C",[3],92.7%
same,"viability, T/C",[4],47.1%
same,"viability, T/C","second compound 0.1 µM, first compound 0.00316 µM",93.5%
same,"viability, T/C","second compound 0.1 µM, first compound 0.01 µM",93.3%
same,"viability, T/C",[5],95.4%
same,"viability, T/C",[6],109%
same,"viability, T/C",[7],86.2%
same,"viability, T/C",[8],53%
same,"viability, T/C","second compound 0.316 µM, first compound 0.00316 µM",88.2%
same,"viability, T/C","second compound 0.316 µM, first compound 0.01 µM",99.3%
same,"viability, T/C",[9],102%
same,"viability, T/C",[10],98.8%
same,"viability, T/C",[11],90.8%
same,"viability, T/C",[12],45.5%
same,"viability, T/C","second compound 1 µM, first compound 0.00316 µM",97.7%
same,"viability, T/C","second compound 1 µM, first compound 0.01 µM",99%
same,"viability, T/C",[13],108%
same,"viability, T/C",[14],112%
same,"viability, T/C",[15],81.9%
same,"viability, T/C",[16],53.2%
same,"viability, T/C","second compound 3.16 µM, first compound 0.00316 µM",104%
same,"viability, T/C","second compound 3.16 µM, first compound 0.01 µM",108%
same,"viability, T/C",[17],97.6%
same,"viability, T/C",[18],93.6%
same,"viability, T/C",[19],100%
same,"viability, T/C",[20],53.4%
same,"viability, T/C","second compound 10 µM, first compound 0.00316 µM",102%
same,"viability, T/C","second compound 10 µM, first compound 0.01 µM",108%
same,"viability, T/C",[21],119%
same,"viability, T/C",[22],99%
same,"viability, T/C",[23],107%
same,"viability, T/C",[24],54.3%
CCCS(=O)(=O)Nc1ccc(F)c(C(=O)c2c[nH]c3ncc(-c4ccc(Cl)cc4)cc23)c1F + Cc1cccc(N(C)C(=O)C2C(O)CCN2c2nc(C)cc(C(F)(F)F)c2C#N)c1,IC50,second compound 0.0316 µM,> 10 µM
same,IC50,second compound 0.1 µM,> 10 µM
same,IC50,second compound 0.316 µM,> 10 µM
same,IC50,second compound 1 µM,> 10 µM
same,IC50,second compound 3.16 µM,> 10 µM
same,IC50,second compound 10 µM,> 10 µM
same,"viability, T/C",[1],89.5%
same,"viability, T/C",[2],93.6%
same,"viability, T/C",[3],99.3%
same,"viability, T/C",[4],104%
same,"viability, T/C",[25],83.7%
same,"viability, T/C",[26],56.8%
same,"viability, T/C",[5],105%
same,"viability, T/C",[6],94.3%
same,"viability, T/C",[7],97.2%
same,"viability, T/C",[8],90.4%
same,"viability, T/C",[27],93.9%
same,"viability, T/C",[28],55.5%
same,"viability, T/C",[9],86.9%
same,"viability, T/C",[10],114%
same,"viability, T/C",[11],98.4%
same,"viability, T/C",[12],87.2%
same,"viability, T/C",[29],80.6%
same,"viability, T/C",[30],64.3%
same,"viability, T/C",[13],97.4%
same,"viability, T/C",[14],91.4%
same,"viability, T/C",[15],92.7%
same,"viability, T/C",[16],93.8%
same,"viability, T/C",[31],92.9%
same,"viability, T/C",[32],51.7%
same,"viability, T/C",[17],116%
same,"viability, T/C",[18],97.3%
same,"viability, T/C",[19],106%
same,"viability, T/C",[20],108%
same,"viability, T/C",[33],89.2%
same,"viability, T/C",[34],55.7%
same,"viability, T/C",[21],98.2%
same,"viability, T/C",[22],97.2%
same,"viability, T/C",[23],104%
same,"viability, T/C",[24],102%
same,"viability, T/C",[35],100%
same,"viability, T/C",[36],61.3%
CNCc1ccc(-c2[nH]c3cc(F)cc4c3c2CCNC4=O)cc1 + Cc1cccc(N(C)C(=O)C2C(O)CCN2c2nc(C)cc(C(F)(F)F)c2C#N)c1,IC50,second compound 0.0316 µM,> 10 µM
same,IC50,second compound 0.1 µM,> 10 µM
same,IC50,second compound 0.316 µM,> 10 µM
same,IC50,second compound 1 µM,> 10 µM
same,IC50,second compound 3.16 µM,> 10 µM
same,IC50,second compound 10 µM,> 10 µM
same,"viability, T/C",[1],91.1%
same,"viability, T/C",[2],97.6%
same,"viability, T/C",[3],93%
same,"viability, T/C",[4],90.3%
same,"viability, T/C",[25],93.4%
same,"viability, T/C",[26],82.7%
same,"viability, T/C",[5],98.4%
same,"viability, T/C",[6],95.7%
same,"viability, T/C",[7],93.8%
same,"viability, T/C",[8],104%
same,"viability, T/C",[27],89%
same,"viability, T/C",[28],81.6%
same,"viability, T/C",[9],91.8%
same,"viability, T/C",[10],92%
same,"viability, T/C",[11],94.2%
same,"viability, T/C",[12],90.6%
same,"viability, T/C",[29],94.9%
same,"viability, T/C",[30],75.2%
same,"viability, T/C",[13],92.6%
same,"viability, T/C",[14],83.6%
same,"viability, T/C",[15],89.5%
same,"viability, T/C",[16],97.5%
same,"viability, T/C",[31],96.9%
same,"viability, T/C",[32],80.9%
same,"viability, T/C",[17],98.7%
same,"viability, T/C",[18],95.3%
same,"viability, T/C",[19],86.8%
same,"viability, T/C",[20],84.2%
same,"viability, T/C",[33],107%
same,"viability, T/C",[34],88.6%
same,"viability, T/C",[21],106%
same,"viability, T/C",[22],98.6%
same,"viability, T/C",[23],105%
same,"viability, T/C",[24],102%
same,"viability, T/C",[35],107%
same,"viability, T/C",[36],93.3%
